According to patent US20180360766A1, “OVARIAN CANCER SPECIFICALLY TARGETED BIODEGRADABLE AMPHIPHILIC POLYMER, POLYMER VESICLE PREPARED THEREBY AND USE THEREOF” (BRIGHTGENE BIO-MEDICAL TECHNOLOGY CO., LTD., priority 2016, published 2018):
Structures can show the parent of a compound that is named as a salt.

How the values were obtained:
in vivo = settings: Balb/C nude, mouse, 10 mg/kg
A2780 cells = experiment: Toxicity of drug-loaded vesicles to A2780 by MTT; assay type: cell-based; settings: Homo sapiens; A2780, CPT.HCl, 4 h co-cultivation + 44 h; transferrin-CLPs with 30% transferrin
[1] = tested on: A2780 subcutaneous ovarian cancer; experiment: Antitumor effect, A2780 subcutaneous ovarian cancer; settings: at 10th day

| SMILES | half-life (in vivo) [min] | IC50 (A2780 cells) [µg/mL] | body weight decrease [1] [%] |
| --- | --- | --- | --- |
| COc1cccc2c1C(=O)c1c(O)c3c(c(O)c1C2=O)C[C@@](O)(C(=O)CO)C[C@@H]3O[C@H]1C[C@H](N)[C@H](O)[C@H](C)O1 [DOX.HCl, doxorubicin hydrochloride] | 16.2 |  |  |
| CCc1c2c(nc3ccc(OC(=O)N4CCC(N5CCCCC5)CC4)cc13)-c1cc3c(c(=O)n1C2)COC(=O)[C@]3(O)CC [CPT.HCl, irinotecan hydrochloride] |  | 4.11 | 18 |
